From patent publication US20230085307A1, “PYRIDAZINONE COMPOUND AND HERBICIDE” (NISSAN CHEMICAL CORPORATION, priority 2019, published 2023)

Key:
southern crabgrass [1] = test: Test Example 5: herbicidal effect by foliage application, plastic box (Table 20, symbol F); type: in vivo, southern crabgrass (Digitaria ciliaris); conditions: foliage application, AAH 320 g/ha, three weeks after application
Method in brief: (§1)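 Plants sown in sterilized diluvial soil and grown 14 days in a greenhouse at 25° C to 30° C, then sprayed on the foliage with the compound's emulsion diluted in water to a predetermined herbicide amount. Injury to weeds and crops scored three weeks after application on a visual rating scale.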

blackgrass [2] = test: Test Example 5: herbicidal effect by foliage application, plastic box (Table 20, symbol J); type: in vivo, blackgrass (Alopecurus myosuroides); conditions: foliage application, AAH 320 g/ha, three weeks after application
Method in brief: as §1

lambsquarters [3] = test: Test Example 5: herbicidal effect by foliage application, plastic box (Table 20, symbol O); type: in vivo, lambsquarters (Chenopodium album); conditions: foliage application, AAH 320 g/ha, three weeks after application
Method in brief: as §1

velvetleaf [4] = test: Test Example 5: herbicidal effect by foliage application, plastic box (Table 20, symbol M); type: in vivo, velvetleaf (Abutilon theophrasti); conditions: foliage application, AAH 320 g/ha, three weeks after application
Method in brief: as §1

wild oat [5] = test: Test Example 5: herbicidal effect by foliage application, plastic box (Table 20, symbol I); type: in vivo, wild oat (Avena fatua); conditions: foliage application, AAH 320 g/ha, three weeks after application
Method in brief: as §1

Chinese sprangletop = test: Test Example 3: herbicidal effect by foliage application, Wagner pot (Table 18, symbol D); type: in vivo, chinese sprangletop (Leptochloa chinensis); conditions: 320 g/ha
Method in brief: (§2)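 Plants were sown in alluvial soil held under 0.1–0.5 cm standing water and grown 14 days in a greenhouse at 25–30 °C. An emulsifiable formulation, water-diluted to the set dose, was then sprayed onto the foliage, and effects were scored three weeks later using previously defined criteria.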

chickweed [6] = test: Test Example 4: herbicidal effect by soil treatment (Table 19, symbol P); type: in vivo, common chickweed (Stellaria media); conditions: AAH 320 g/ha
Method in brief: (§3)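 Seeds were sown in sterilized diluvial soil and covered with about 1.5 cm of soil. An emulsion formulation diluted with water to a predetermined herbicide amount was sprayed evenly onto the soil surface. Plants grew in a greenhouse at 25° C. to 30° C., and the effect was scored three weeks after application using criteria from an earlier test.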

windgrass [7] = test: Test Example 4: herbicidal effect by soil treatment (Table 19, symbol L); type: in vivo, windgrass (Apera spica-venti); conditions: AAH 320 g/ha
Method in brief: as §3

chickweed [8] = test: Test Example 5: herbicidal effect by foliage application, plastic box (Table 20, symbol P); type: in vivo, common chickweed (Stellaria media); conditions: foliage application, AAH 320 g/ha, three weeks after application
Method in brief: as §1

green foxtail [9] = test: Test Example 5: herbicidal effect by foliage application, plastic box (Table 20, symbol G); type: in vivo, green foxtail (Setaria viridis); conditions: foliage application, AAH 320 g/ha, three weeks after application
Method in brief: as §1

persian speedwell [10] = test: Test Example 5: herbicidal effect by foliage application, plastic box (Table 20, symbol R); type: in vivo, Persian speedwell (Veronica persica); conditions: foliage application, AAH 320 g/ha, three weeks after application
Method in brief: as §1

green foxtail [11] = test: Test Example 4: herbicidal effect by soil treatment (Table 19, symbol G); type: in vivo, green foxtail (Setaria viridis); conditions: AAH 320 g/ha
Method in brief: as §3

barnyard grass [12] = test: Test Example 4: herbicidal effect by soil treatment (Table 19, symbol H); type: in vivo, barnyard grass (Echinochloa crus-galli); conditions: AAH 320 g/ha
Method in brief: as §3

persian speedwell [13] = test: Test Example 4: herbicidal effect by soil treatment (Table 19, symbol R); type: in vivo, Persian speedwell (Veronica persica); conditions: AAH 320 g/ha
Method in brief: as §3

lambsquarters [14] = test: Test Example 4: herbicidal effect by soil treatment (Table 19, symbol O); type: in vivo, lambsquarters (Chenopodium album); conditions: AAH 320 g/ha
Method in brief: as §3

velvetleaf [15] = test: Test Example 4: herbicidal effect by soil treatment (Table 19, symbol M); type: in vivo, velvetleaf (Abutilon theophrasti); conditions: AAH 320 g/ha
Method in brief: as §3

barnyard grass [16] = test: Test Example 5: herbicidal effect by foliage application, plastic box (Table 20, symbol H); type: in vivo, barnyard grass (Echinochloa crus-galli); conditions: foliage application, AAH 320 g/ha, three weeks after application
Method in brief: as §1

rice flat sedge = test: Test Example 3: herbicidal effect by foliage application, Wagner pot (Table 18, symbol E); type: in vivo, rice flat sedge (Cyperus iria); conditions: 320 g/ha
Method in brief: as §2

Italian ryegrass [17] = test: Test Example 4: herbicidal effect by soil treatment (Table 19, symbol K); type: in vivo, Italian ryegrass (Lolium multiflorum); conditions: AAH 320 g/ha
Method in brief: as §3

barnyard grass [18] = test: Test Example 3: herbicidal effect by foliage application, Wagner pot (Table 18, symbol H); type: in vivo, barnyard grass (Echinochloa crus-galli); conditions: 320 g/ha
Method in brief: as §2

blackgrass [19] = test: Test Example 4: herbicidal effect by soil treatment (Table 19, symbol J); type: in vivo, blackgrass (Alopecurus myosuroides); conditions: AAH 320 g/ha
Method in brief: as §3

windgrass [20] = test: Test Example 5: herbicidal effect by foliage application, plastic box (Table 20, symbol L); type: in vivo, windgrass (Apera spica-venti); conditions: foliage application, AAH 320 g/ha, three weeks after application
Method in brief: as §1

Italian ryegrass [21] = test: Test Example 5: herbicidal effect by foliage application, plastic box (Table 20, symbol K); type: in vivo, Italian ryegrass (Lolium multiflorum); conditions: foliage application, AAH 320 g/ha, three weeks after application
Method in brief: as §1

southern crabgrass [22] = test: Test Example 4: herbicidal effect by soil treatment (Table 19, symbol F); type: in vivo, southern crabgrass (Digitaria ciliaris); conditions: AAH 320 g/ha
Method in brief: as §3

redroot pigweed [23] = test: Test Example 4: herbicidal effect by soil treatment (Table 19, symbol N); type: in vivo, redroot pigweed (Amaranthus retroflexus); conditions: AAH 320 g/ha
Method in brief: as §3

wild oat [24] = test: Test Example 4: herbicidal effect by soil treatment (Table 19, symbol I); type: in vivo, wild oat (Avena fatua); conditions: AAH 320 g/ha
Method in brief: as §3

redroot pigweed [25] = test: Test Example 5: herbicidal effect by foliage application, plastic box (Table 20, symbol N); type: in vivo, redroot pigweed (Amaranthus retroflexus); conditions: foliage application, AAH 320 g/ha, three weeks after application
Method in brief: as §1

SMILES | F: southern crabgrass, herbicidal effect (southern crabgrass [1]) | J: blackgrass, herbicidal effect (blackgrass [2]) | O: lambsquarters, herbicidal effect (lambsquarters [3]) | M: velvetleaf, herbicidal effect (velvetleaf [4]) | I: wild oat, herbicidal effect (wild oat [5]) | herbicidal effect on D (Chinese sprangletop), rating 0-5 (Chinese sprangletop) | P: chickweed, herbicidal effect rating (chickweed [6]) | L: windgrass, herbicidal effect rating (windgrass [7]) | P: chickweed, herbicidal effect (chickweed [8]) | G: green foxtail, herbicidal effect (green foxtail [9]) | R: persian speedwell, herbicidal effect (persian speedwell [10]) | G: green foxtail, herbicidal effect rating (green foxtail [11]) | H: barnyard grass, herbicidal effect rating (barnyard grass [12]) | R: persian speedwell, herbicidal effect rating (persian speedwell [13]) | O: lambsquarters, herbicidal effect rating (lambsquarters [14]) | M: velvetleaf, herbicidal effect rating (velvetleaf [15]) | H: barnyard grass, herbicidal effect (barnyard grass [16]) | herbicidal effect on E (rice flat sedge), rating 0-5 (rice flat sedge) | K: Italian ryegrass, herbicidal effect rating (Italian ryegrass [17]) | herbicidal effect on H (barnyard grass), rating 0-5 (barnyard grass [18]) | further results
C=Cc1ccc(-c2sc3ccccc3c2-c2c(O)c(C)nn(C)c2=O)cc1 [1-127] | 2 (Herbicidal rate of 20% or more and less than 40%) | 1 (Herbicidal rate of 5% or more and less than 20%) | 5 (Herbicidal rate of 90% or more (almost completely withered)) | 5 (Herbicidal rate of 90% or more (almost completely withered)) | 0 (Herbicidal rate of 5% or less (almost no effect)) | 3 (Herbicidal rate of 40% or more and less than 70%) | 0 (Herbicidal rate of 5% or less (almost no effect)) | 0 (Herbicidal rate of 5% or less (almost no effect)) | 5 (Herbicidal rate of 90% or more (almost completely withered)) | 4 (Herbicidal rate of 70% or more and less than 90%) | 5 (Herbicidal rate of 90% or more (almost completely withered)) | 0 (Herbicidal rate of 5% or less (almost no effect)) | 0 (Herbicidal rate of 5% or less (almost no effect)) | 4 (Herbicidal rate of 70% or more and less than 90%) | 4 (Herbicidal rate of 70% or more and less than 90%) | 2 (Herbicidal rate of 20% or more and less than 40%) | 4 (Herbicidal rate of 70% or more and less than 90%) | 5 (Herbicidal rate of 90% or more (almost completely withered)) | 5 (Herbicidal rate of 90% or more (almost completely withered)) | 0 (Herbicidal rate of 5% or less (almost no effect)) | J: blackgrass, herbicidal effect rating (blackgrass [19]): 0 (Herbicidal rate of 5% or less (almost no effect)); L: windgrass, herbicidal effect (windgrass [20]): 5 (Herbicidal rate of 90% or more (almost completely withered)); K: Italian ryegrass, herbicidal effect (Italian ryegrass [21]): 5 (Herbicidal rate of 90% or more (almost completely withered)); F: southern crabgrass, herbicidal effect rating (southern crabgrass [22]): 0 (Herbicidal rate of 5% or less (almost no effect)); N: redroot pigweed, herbicidal effect rating (redroot pigweed [23]): 5 (Herbicidal rate of 90% or more (almost completely withered)); I: wild oat, herbicidal effect rating (wild oat [24]): 0 (Herbicidal rate of 5% or less (almost no effect)); N: redroot pigweed, herbicidal effect (redroot pigweed [25]): 5 (Herbicidal rate of 90% or more (almost completely withered))
Cc1nn(C)c(=O)c(-c2c(-c3ccc(C(F)(F)F)cc3)sc3ccccc23)c1O [1-129] | 0 (Herbicidal rate of 5% or less (almost no effect)) | 0 (Herbicidal rate of 5% or less (almost no effect)) | 4 (Herbicidal rate of 70% or more and less than 90%) | 5 (Herbicidal rate of 90% or more (almost completely withered)) | 0 (Herbicidal rate of 5% or less (almost no effect)) | 3 (Herbicidal rate of 40% or more and less than 70%) | 1 (Herbicidal rate of 5% or more and less than 20%) | 0 (Herbicidal rate of 5% or less (almost no effect)) | 5 (Herbicidal rate of 90% or more (almost completely withered)) | 2 (Herbicidal rate of 20% or more and less than 40%) | 5 (Herbicidal rate of 90% or more (almost completely withered)) | 0 (Herbicidal rate of 5% or less (almost no effect)) | 0 (Herbicidal rate of 5% or less (almost no effect)) | 4 (Herbicidal rate of 70% or more and less than 90%) | 5 (Herbicidal rate of 90% or more (almost completely withered)) | 2 (Herbicidal rate of 20% or more and less than 40%) | 3 (Herbicidal rate of 40% or more and less than 70%) | 5 (Herbicidal rate of 90% or more (almost completely withered)) | 5 (Herbicidal rate of 90% or more (almost completely withered)) | 3 (Herbicidal rate of 40% or more and less than 70%) | J: blackgrass, herbicidal effect rating (blackgrass [19]): 0 (Herbicidal rate of 5% or less (almost no effect)); L: windgrass, herbicidal effect (windgrass [20]): 0 (Herbicidal rate of 5% or less (almost no effect)); K: Italian ryegrass, herbicidal effect (Italian ryegrass [21]): 5 (Herbicidal rate of 90% or more (almost completely withered)); F: southern crabgrass, herbicidal effect rating (southern crabgrass [22]): 0 (Herbicidal rate of 5% or less (almost no effect)); N: redroot pigweed, herbicidal effect rating (redroot pigweed [23]): 5 (Herbicidal rate of 90% or more (almost completely withered)); I: wild oat, herbicidal effect rating (wild oat [24]): 0 (Herbicidal rate of 5% or less (almost no effect)); N: redroot pigweed, herbicidal effect (redroot pigweed [25]): 5 (Herbicidal rate of 90% or more (almost completely withered))
Cc1nn(C)c(=O)c(-c2c(-c3ccc(OCC#N)cc3)sc3ccccc23)c1O [1-137] | 0 (Herbicidal rate of 5% or less (almost no effect)) | 0 (Herbicidal rate of 5% or less (almost no effect)) | 3 (Herbicidal rate of 40% or more and less than 70%) | 3 (Herbicidal rate of 40% or more and less than 70%) | 0 (Herbicidal rate of 5% or less (almost no effect)) | 3 (Herbicidal rate of 40% or more and less than 70%) | 0 (Herbicidal rate of 5% or less (almost no effect)) | 0 (Herbicidal rate of 5% or less (almost no effect)) | 3 (Herbicidal rate of 40% or more and less than 70%) | 0 (Herbicidal rate of 5% or less (almost no effect)) | 4 (Herbicidal rate of 70% or more and less than 90%) | 2 (Herbicidal rate of 20% or more and less than 40%) | 0 (Herbicidal rate of 5% or less (almost no effect)) | 3 (Herbicidal rate of 40% or more and less than 70%) | 2 (Herbicidal rate of 20% or more and less than 40%) | 0 (Herbicidal rate of 5% or less (almost no effect)) | 1 (Herbicidal rate of 5% or more and less than 20%) | 5 (Herbicidal rate of 90% or more (almost completely withered)) | 0 (Herbicidal rate of 5% or less (almost no effect)) | 3 (Herbicidal rate of 40% or more and less than 70%) | J: blackgrass, herbicidal effect rating (blackgrass [19]): 0 (Herbicidal rate of 5% or less (almost no effect)); L: windgrass, herbicidal effect (windgrass [20]): 0 (Herbicidal rate of 5% or less (almost no effect)); K: Italian ryegrass, herbicidal effect (Italian ryegrass [21]): 0 (Herbicidal rate of 5% or less (almost no effect)); F: southern crabgrass, herbicidal effect rating (southern crabgrass [22]): 0 (Herbicidal rate of 5% or less (almost no effect)); N: redroot pigweed, herbicidal effect rating (redroot pigweed [23]): 3 (Herbicidal rate of 40% or more and less than 70%); I: wild oat, herbicidal effect rating (wild oat [24]): 0 (Herbicidal rate of 5% or less (almost no effect)); N: redroot pigweed, herbicidal effect (redroot pigweed [25]): 0 (Herbicidal rate of 5% or less (almost no effect))
